Measurements from PMC11702208 (RSC Advances, 2025).
Like-named read-outs stand apart in the source and are kept apart here.

Assays:
[1] = tested on: CNS cancer subpanel tumor cell lines; assay: NCI cytotoxicity screen, subpanel; assay type: cell-based, human
[2] = tested on: SF-539; assay: NCI cytotoxicity screen; assay type: cell-based, human; conditions: Homo sapiens
[3] = tested on: 59 cancer cell lines; assay: NCI cytotoxicity screen, full panel; assay type: cell-based, human; conditions: full panel mean-graph midpoint; for CC50: read-out: LC50 MG_MID
[4] = tested on: ACHN; assay: NCI cytotoxicity screen; assay type: cell-based, human; conditions: Homo sapiens
[5] = tested on: RXF 393; assay: NCI cytotoxicity screen; assay type: cell-based, human; conditions: Homo sapiens
[6] = tested on: SN12C; assay: NCI cytotoxicity screen; assay type: cell-based, human; conditions: Homo sapiens, SN12C
[7] = tested on: K-562; assay: cells; conditions: Homo sapiens, K562
[8] = tested on: MDA-MB-231/ATCC; assay: NCI cytotoxicity screen; assay type: cell-based, human; conditions: Homo sapiens, MDA-MB-231
[9] = tested on: Prostate cancer subpanel tumor cell lines; assay: NCI cytotoxicity screen, subpanel; assay type: cell-based, human
[10] = tested on: SR; assay: NCI cytotoxicity screen; assay type: cell-based, human; conditions: Homo sapiens
[11] = tested on: BT-549; assay: NCI cytotoxicity screen; assay type: cell-based, human; conditions: Homo sapiens
[12] = tested on: UACC-62; assay: NCI cytotoxicity screen; assay type: cell-based, human; conditions: Homo sapiens
[13] = tested on: NSC lung cancer subpanel tumor cell lines; assay: NCI cytotoxicity screen, subpanel; assay type: cell-based, human
[14] = tested on: HCC-2998; assay: NCI cytotoxicity screen; assay type: cell-based, human; conditions: Homo sapiens, HCC 2998
[15] = tested on: 786-0; assay: NCI cytotoxicity screen; assay type: cell-based, human; conditions: Homo sapiens
[16] = tested on: NCI-H322M; assay: NCI cytotoxicity screen; assay type: cell-based, human; conditions: Homo sapiens
[17] = tested on: OVCAR-4; assay: NCI cytotoxicity screen; assay type: cell-based, human; conditions: Homo sapiens, OVCAR-4
[18] = tested on: EKVX; assay: NCI cytotoxicity screen; assay type: cell-based, human; conditions: Homo sapiens
[19] = tested on: Melanoma subpanel tumor cell lines; assay: NCI cytotoxicity screen, subpanel; assay type: cell-based, human
[20] = tested on: NCI/ADR-RES; assay: NCI cytotoxicity screen; assay type: cell-based, human; conditions: Homo sapiens, five-dose
[21] = tested on: A549/ATCC; assay: NCI cytotoxicity screen; assay type: cell-based, human; conditions: Homo sapiens, A549
[22] = tested on: HCT-15; assay: NCI cytotoxicity screen; assay type: cell-based, human; conditions: Homo sapiens
[23] = tested on: OVCAR-3; assay: NCI cytotoxicity screen; assay type: cell-based, human; conditions: Homo sapiens, OVCAR-3
[24] = tested on: NCI-H460; assay: NCI cytotoxicity screen; assay type: cell-based, human; conditions: Homo sapiens
[25] = tested on: OVCAR-5; assay: NCI cytotoxicity screen; assay type: cell-based, human; conditions: Homo sapiens, OVCAR-5
[26] = tested on: UACC-257; assay: NCI cytotoxicity screen; assay type: cell-based, human; conditions: Homo sapiens
[27] = tested on: COLO 205; assay: NCI cytotoxicity screen; assay type: cell-based, human; conditions: Homo sapiens, COLO 205
[28] = tested on: Leukemia subpanel tumor cell lines; assay: NCI cytotoxicity screen, subpanel; assay type: cell-based, human
[29] = tested on: HT29; assay: NCI cytotoxicity screen; assay type: cell-based, human; conditions: Homo sapiens, HT-29
[30] = tested on: Ovarian cancer subpanel tumor cell lines; assay: NCI cytotoxicity screen, subpanel; assay type: cell-based, human
[31] = tested on: SNB-75; assay: NCI cytotoxicity screen; assay type: cell-based, human; conditions: Homo sapiens
[32] = tested on: Breast cancer subpanel tumor cell lines; assay: NCI cytotoxicity screen, subpanel; assay type: cell-based, human
[33] = tested on: SK-MEL-5; assay: NCI cytotoxicity screen; assay type: cell-based, human; conditions: Homo sapiens
[34] = tested on: SF-295; assay: NCI cytotoxicity screen; assay type: cell-based, human; conditions: Homo sapiens
[35] = tested on: NCI-H23; assay: NCI cytotoxicity screen; assay type: cell-based, human; conditions: Homo sapiens
[36] = tested on: U251; assay: NCI cytotoxicity screen; assay type: cell-based, human; conditions: Homo sapiens, U-251
[37] = tested on: PC-3; assay: NCI cytotoxicity screen; assay type: cell-based, human; conditions: Homo sapiens
[38] = tested on: UO-31; assay: NCI cytotoxicity screen; assay type: cell-based, human; conditions: Homo sapiens
[39] = tested on: HOP-62; assay: NCI cytotoxicity screen; assay type: cell-based, human; conditions: Homo sapiens
[40] = tested on: CAKI-1; assay: NCI cytotoxicity screen; assay type: cell-based, human; conditions: Homo sapiens
[41] = tested on: OVCAR-8; assay: NCI cytotoxicity screen; assay type: cell-based, human; conditions: Homo sapiens
[42] = tested on: T-47D; assay: NCI cytotoxicity screen; assay type: cell-based, human; conditions: Homo sapiens, T47D
[43] = tested on: RPMI-8226; assay: NCI cytotoxicity screen; assay type: cell-based, human; conditions: Homo sapiens
[44] = subpanel value, NSC lung cancer

Structure (SMILES): C#Cc1cccc(Nc2ncnc3cc(OCCOC)c(OCCOC)cc23)c1 [Erlotinib, reference compound]
- CC50 ([1]; Homo sapiens, read-out: LC50): > 100 µM
- GI50 ([1]; Homo sapiens, subpanel value, CNS cancer): 17 µM
- GI50 ([1]; subpanel value, CNS cancer): 17 µM
- TGI ([1]; subpanel value, CNS cancer): 82.11 µM
- GI50 [2]: 12.6 µM
- TGI MG_MID [3]: 66.3 µM
- TGI MG_MID ([3]; listed as erlotinib): 14.3 µM
- GI50 ([3]; read-out: GI50 MG_MID): 7.68 µM
- CC50 [3]: 95.6 µM
- CC50 ([3]; listed as erlotinib): 14.3 µM
- GI50 [4]: 0.15 µM
- GI50 [5]: 6.3 µM
- GI50 [6]: 6.3 µM
- GI50 [7]: 15.5 µM
- GI50 [8]: 1.99 µM
- CC50 ([9]; Homo sapiens, read-out: LC50): > 100 µM
- GI50 ([9]; Homo sapiens, subpanel value, Prostate cancer): 20.9 µM
- TGI ([9]; subpanel value, Prostate cancer): c (Compounds showed values > 100 μM)
- GI50 [10]: 6.3 µM
- GI50 [11]: 39.8 µM
- GI50 [12]: 1.25 µM
- CC50 ([13]; Homo sapiens, read-out: LC50): 97.7 µM
- GI50 ([13]; Homo sapiens, subpanel value, NSC lung cancer): 13.1 µM
- GI50 [13, 44]: 13.1 µM
- TGI [13, 44]: 73.76 µM
- GI50 [14]: 79.3 µM
- GI50 [15]: 5.01 µM
- GI50 [16]: 0.05 µM
- GI50 [17]: 19.9 µM
- GI50 [18]: 0.005 µM
- CC50 ([19]; Homo sapiens, read-out: LC50): 93.3 µM
- GI50 ([19]; Homo sapiens, subpanel value, Melanoma): 23.7 µM
- GI50 ([19]; subpanel value, Melanoma): 23.7 µM
- TGI ([19]; subpanel value, Melanoma): 77.89 µM
- GI50 [20]: 6.3 µM
- GI50 [21]: 7.94 µM
- GI50 [22]: 3.16 µM
- GI50 [23]: 3.16 µM
- GI50 [24]: 5.01 µM
- GI50 [25]: 19.9 µM
- GI50 [26]: 100 µM
- GI50 [27]: 31.6 µM
- CC50 ([28]; Homo sapiens, read-out: LC50): > 100 µM
- GI50 ([28]; Homo sapiens, subpanel value, Leukemia): 27.9 µM
- GI50 ([28]; subpanel value, Leukemia): 27.9 µM
- TGI ([28]; subpanel value, Leukemia): 96.57 µM
- GI50 [29]: 50.1 µM
- CC50 ([30]; Homo sapiens, read-out: LC50): 97.1 µM
- GI50 ([30]; subpanel value, Ovarian cancer): 5.52 µM
- TGI ([30]; subpanel value, Ovarian cancer): 74.41 µM
- GI50 [31]: 12.6 µM
- CC50 ([32]; Homo sapiens, read-out: LC50): 96.4 µM
- GI50 ([32]; Homo sapiens, subpanel value, Breast cancer): 24.7 µM
- GI50 ([32]; subpanel value, Breast cancer): 24.7 µM
- TGI ([32]; subpanel value, Breast cancer): 70.53 µM
- GI50 [33]: 15.8 µM
- GI50 [34]: 15.8 µM
- GI50 [35]: 19.9 µM
- GI50 [36]: 19.9 µM
- GI50 [37]: 50.1 µM
- GI50 [38]: 1.99 µM
- GI50 [39]: 12.6 µM
- GI50 [40]: 0.1 µM
- GI50 [41]: 7.94 µM
- GI50 [42]: 3.16 µM
- GI50 [43]: 5.01 µM
